Reference: patent publication US20220033623A1, “CONJUGATES OF HYALURONIC ACID AND AMINOBISPHOSPHONATES AND THE THERAPEUTIC USE THEREOF” (FIDIA FARMACEUTICI S.P.A., priority 2018, published 2022)
Where two headings read alike, the source gives them in different places.

Columns and labels:
[1] = test system: primary bovine chondrocytes; conditions: for cytotoxic effect: 7 days
Procedure: The ability of the conjugate to release alendronate in a controlled way and also to have an effect on cartilage tissue was evaluated by in vitro testing on primary bovine chondrocytes.
(§1) 1) a control group, wherein the cells were neither treated nor stimulated;
(§2) Each sample was tested in four replications.

[2] = Rheological properties: viscoelastic moduli (frequency sweep) after adding CaCl2; format: physicochemical; conditions: 20 mg/mL in 0.1 M TRIS pH 7, alendronate 2.4 mg/mL, CaCl2 2 mg/mL, 20° C, 0.1-100 rad/s; FIG. 2
Saos-2 osteoblasts = conditions: for cell viability: 3 days of incubation, % of that of the control, FIG. 4A
Procedure: The cells were then seeded at the concentration of 1×10^4 cells/well in 96-well Multiwell plates (Sarstedt, cat. no. 83,3924, Germany) and divided into three groups:
as §1, §2

Question: For `NCCCC(O)(P(=O)(O)O)P(=O)(O)O` [alendronate], which “onset of the effect on the cells” value [1] is on record?
Answer: The value was “acts on the primary bovine chondrocytes after only 72 hours of incubation”.

Question: What about the cytotoxic effect ([1]; 50 μM) of the same compound?
Answer: The cytotoxic effect was “maximum cytotoxic effect”.

Question: And the cytotoxic effect ([1]; 100 μM)?
Answer: Its cytotoxic effect is “maximum cytotoxic effect”.

Question: What about the “viscoelastic moduli G′ (elastic) and G″ (viscous), comparison in words” value [2] of the same compound?
Answer: Its value is “no effect on rheological behaviour”.

Question: What about the cell viability (Saos-2 osteoblasts; Saos-2, 50 μM) of the same compound?
Answer: The cell viability was less than 70%.

Question: And the cell viability (Saos-2 osteoblasts; Saos-2, 100 μM)?
Answer: The cell viability was less than 70%.

Question: What about the “cytotoxicity as a function of incubation period” value (Saos-2 osteoblasts; Saos-2, 3 versus 7 days) of the same compound?
Answer: Its value is “increases significantly in proportion to the incubation period”.
